# Values quoted from earlier work as cited in patent US9333175B2, “Controlled release levetiracetam formulations and methods for producing the same” (Mylan Inc., priority 2010, dated 2016).
# Conditions: A. J. Gower et al., Eur. J. Pharmacol., 222, 1992, 193-203
row,SMILES,activity in the treatment of epilepsy
1,"CC[C@@H](C(N)=O)N1CCCC1=O [Levetiracetam, (S)-(−)-alpha-ethyl-2-oxo-1-pyrrolidine acetamide]",effective in the treatment of epilepsy
2,CC[C@H](C(N)=O)N1CCCC1=O [(R)-(+)-alpha-ethyl-2-oxo-1-pyrrolidine acetamide],completely lacks activity
